This passage reports activity coefficient results from the NIST ThermoML archive (doi:10.1016/j.fluid.2009.08.017).

± gives the expanded uncertainty stated by the source.

A short description of this data set: activity coefficient (dimensionless); of the first substance listed, at infinite dilution; xn = mol fraction of the nth substance listed. Particulars: 101 kPa, Liquid, Chromatography, x1 = 0.

As for `C#CCCC` [1-pentyne] + CCCCCCOCn1cc[n+](C)c1.O=S(=O)([N-]S(=O)(=O)C(F)(F)F)C(F)(F)F, the activity coefficient reads like this: (298.15 K) 1.54 ± 0.1; (308.15 K) 1.56 ± 0.1; (318.15 K) 1.57 ± 0.1; (328.15 K) 1.58 ± 0.1; (338.15 K) 1.59 ± 0.11; (348.15 K) 1.59 ± 0.11. The activity coefficient reads like this: (358.15 K) 1.6 ± 0.11; (368.15 K) 1.61 ± 0.11.

For `C#CCCC` [1-pentyne] + CCCCCCOCn1cc[n+](COCCCCCC)c1.O=S(=O)([N-]S(=O)(=O)C(F)(F)F)C(F)(F)F, the activity coefficient worked out at 0.992 ± 0.062 (298.15 K); 0.997 ± 0.062 (308.15 K); 1 ± 0.063 (318.15 K); 1.01 ± 0.063 (328.15 K); 1.01 ± 0.063 (338.15 K); 1.02 ± 0.064 (348.15 K). Besides, the activity coefficient was found to be 1.02 ± 0.064 (358.15 K) and 1.02 ± 0.064 (368.15 K).

On to `COC(C)(C)C` [2-methoxy-2-methylpropane] + CCCCCCOCn1cc[n+](C)c1.O=S(=O)([N-]S(=O)(=O)C(F)(F)F)C(F)(F)F, for which the activity coefficient is, setting by setting: (298.15 K) 1.26 ± 0.08; (308.15 K) 1.29 ± 0.08; (318.15 K) 1.32 ± 0.09; (328.15 K) 1.36 ± 0.09; (338.15 K) 1.39 ± 0.09; (348.15 K) 1.41 ± 0.09. Further, the activity coefficient was 1.44 ± 0.09 (358.15 K) and 1.46 ± 0.1 (368.15 K).

With `COC(C)(C)C` [2-methoxy-2-methylpropane] + CCCCCCOCn1cc[n+](COCCCCCC)c1.O=S(=O)([N-]S(=O)(=O)C(F)(F)F)C(F)(F)F, the activity coefficient came to 0.759 ± 0.05 (298.15 K); 0.78 ± 0.051 (308.15 K); 0.801 ± 0.052 (318.15 K); 0.821 ± 0.053 (328.15 K); 0.841 ± 0.054 (338.15 K); 0.859 ± 0.055 (348.15 K). Besides, the activity coefficient reads like this: (358.15 K) 0.877 ± 0.056; (368.15 K) 0.896 ± 0.057.

For the compound `CC(C)=O` [acetone] + CCCCCCOCn1cc[n+](C)c1.O=S(=O)([N-]S(=O)(=O)C(F)(F)F)C(F)(F)F, the activity coefficient (298.15 K) was determined as 0.3 ± 0.031; the activity coefficient (308.15 K) is 0.308 ± 0.031; the activity coefficient (318.15 K) turned out to be 0.315 ± 0.031; the activity coefficient (328.15 K) amounted to 0.322 ± 0.031; the activity coefficient (338.15 K) was found to be 0.328 ± 0.032; the activity coefficient (348.15 K) was found to be 0.336 ± 0.032. In addition, the activity coefficient (358.15 K) came to 0.342 ± 0.032 and the activity coefficient (368.15 K) turned out to be 0.348 ± 0.032.

Consider `CC(C)=O` [acetone] + CCCCCCOCn1cc[n+](COCCCCCC)c1.O=S(=O)([N-]S(=O)(=O)C(F)(F)F)C(F)(F)F, for which the activity coefficient is 0.262 ± 0.03 (298.15 K); 0.267 ± 0.03 (308.15 K); 0.272 ± 0.03 (318.15 K); 0.277 ± 0.03 (328.15 K); 0.281 ± 0.03 (338.15 K); 0.286 ± 0.031 (348.15 K). Further, the activity coefficient (358.15 K) worked out at 0.29 ± 0.031 and the activity coefficient (368.15 K) was found to be 0.294 ± 0.031.

For the compound `c1ccccc1` [benzene] + CCCCCCOCn1cc[n+](C)c1.O=S(=O)([N-]S(=O)(=O)C(F)(F)F)C(F)(F)F, the activity coefficient (298.15 K) was 0.802 ± 0.052; the activity coefficient (308.15 K) amounted to 0.807 ± 0.052; the activity coefficient (318.15 K) was determined as 0.812 ± 0.053; the activity coefficient (328.15 K) was 0.816 ± 0.053; the activity coefficient (338.15 K) was found to be 0.82 ± 0.053; the activity coefficient (348.15 K) is 0.824 ± 0.053. Besides, the activity coefficient (358.15 K) was 0.827 ± 0.053 and the activity coefficient (368.15 K) came out at 0.832 ± 0.054.

In the case of `c1ccccc1` [benzene] + CCCCCCOCn1cc[n+](COCCCCCC)c1.O=S(=O)([N-]S(=O)(=O)C(F)(F)F)C(F)(F)F, the activity coefficient (298.15 K) came to 0.608 ± 0.043; the activity coefficient (308.15 K) worked out at 0.608 ± 0.043; the activity coefficient (318.15 K) came to 0.607 ± 0.042; the activity coefficient (328.15 K) was 0.607 ± 0.042; the activity coefficient (338.15 K) turned out to be 0.606 ± 0.042; the activity coefficient (348.15 K) turned out to be 0.606 ± 0.042. In addition, the activity coefficient (358.15 K) came out at 0.606 ± 0.042 and the activity coefficient (368.15 K) is 0.606 ± 0.042.

On to `CCCCO` [butan-1-ol] + CCCCCCOCn1cc[n+](C)c1.O=S(=O)([N-]S(=O)(=O)C(F)(F)F)C(F)(F)F, for which the activity coefficient runs as follows: (318.15 K) 1.74 ± 0.12; (328.15 K) 1.58 ± 0.1; (338.15 K) 1.45 ± 0.1; (348.15 K) 1.34 ± 0.09; (358.15 K) 1.24 ± 0.08; (368.15 K) 1.15 ± 0.07.

Consider `CCCCO` [butan-1-ol] + CCCCCCOCn1cc[n+](COCCCCCC)c1.O=S(=O)([N-]S(=O)(=O)C(F)(F)F)C(F)(F)F, for which the activity coefficient came out at 1.19 ± 0.08 (318.15 K); 1.1 ± 0.07 (328.15 K); 1.01 ± 0.064 (338.15 K); 0.943 ± 0.059 (348.15 K); 0.877 ± 0.056 (358.15 K); 0.82 ± 0.053 (368.15 K).

For `C1CCCCCC1` [cycloheptane] + CCCCCCOCn1cc[n+](C)c1.O=S(=O)([N-]S(=O)(=O)C(F)(F)F)C(F)(F)F, the activity coefficient (298.15 K) stood at 6.51 ± 0.44; the activity coefficient (308.15 K) was 6.15 ± 0.42; the activity coefficient (318.15 K) was found to be 5.8 ± 0.4; the activity coefficient (328.15 K) was 5.49 ± 0.37; the activity coefficient (338.15 K) amounted to 5.23 ± 0.36; the activity coefficient (348.15 K) came to 5.02 ± 0.34. Besides, the activity coefficient by setting is: (358.15 K) 4.79 ± 0.33; (368.15 K) 4.6 ± 0.31.

For `C1CCCCCC1` [cycloheptane] + CCCCCCOCn1cc[n+](COCCCCCC)c1.O=S(=O)([N-]S(=O)(=O)C(F)(F)F)C(F)(F)F, the activity coefficient amounted to 2.71 ± 0.18 (298.15 K); 2.6 ± 0.18 (308.15 K); 2.5 ± 0.17 (318.15 K); 2.41 ± 0.16 (328.15 K); 2.33 ± 0.16 (338.15 K); 2.25 ± 0.15 (348.15 K). The activity coefficient reads like this: (358.15 K) 2.19 ± 0.15; (368.15 K) 2.12 ± 0.14.

With `C1CCCCC1` [cyclohexane] + CCCCCCOCn1cc[n+](C)c1.O=S(=O)([N-]S(=O)(=O)C(F)(F)F)C(F)(F)F, the activity coefficient was 5.44 ± 0.37 (298.15 K); 5.14 ± 0.35 (308.15 K); 4.87 ± 0.33 (318.15 K); 4.63 ± 0.32 (328.15 K); 4.43 ± 0.3 (338.15 K); 4.24 ± 0.29 (348.15 K). Moreover, the activity coefficient amounted to 4.07 ± 0.28 (358.15 K) and 3.91 ± 0.27 (368.15 K).

For `C1CCCCC1` [cyclohexane] + CCCCCCOCn1cc[n+](COCCCCCC)c1.O=S(=O)([N-]S(=O)(=O)C(F)(F)F)C(F)(F)F, the activity coefficient (298.15 K) is 2.32 ± 0.16; the activity coefficient (308.15 K) is 2.22 ± 0.15; the activity coefficient (318.15 K) came to 2.15 ± 0.15; the activity coefficient (328.15 K) came out at 2.08 ± 0.14; the activity coefficient (338.15 K) was 2.01 ± 0.14; the activity coefficient (348.15 K) was 1.94 ± 0.13. The activity coefficient by setting is: (358.15 K) 1.89 ± 0.13; (368.15 K) 1.84 ± 0.12.

Turning to `C1CCCCCCC1` [cyclooctane] + CCCCCCOCn1cc[n+](C)c1.O=S(=O)([N-]S(=O)(=O)C(F)(F)F)C(F)(F)F, the activity coefficient was determined as 8.12 ± 0.55 (298.15 K); 7.57 ± 0.52 (308.15 K); 7.11 ± 0.48 (318.15 K); 6.74 ± 0.46 (328.15 K); 6.35 ± 0.43 (338.15 K); 6.06 ± 0.41 (348.15 K). For the same compound, the activity coefficient was found to be 5.75 ± 0.39 (358.15 K) and 5.48 ± 0.37 (368.15 K).
